Laboratory results taken from patent US20220143050A1, “mTOR Inhibitor” (priority 2019, published 2022).
Counter-ions that a name gives are not always drawn.

How the values were obtained:
[1] = test system: LPS-stimulated peripheral blood mononuclear cell (PBMC); test: Regulation of cytokine profile in LPS-stimulated PBMC (BioPlex / ELISA); assay type: cell-based, human; details: for IL-10 production (ELISA) / IL-12p70 production (ELISA): PBMC pretreated 2 hours at various concentrations, 100 ng/mL LPS, supernatant 24 hours after LPS
Excerpt: A peripheral blood mononuclear cell (PBMC) was separated from blood collected from a healthy volunteer (HV) and a chronic hepatitis B patient by a concentration gradient method. CD3+ T cell, CD19+B cell, CD56+NK cell, and CD14+ monocyte were respectively separated using magnetic antibodies.

Akt [2] = test: Phosphorylation of Akt in LPS-stimulated CD14+ monocyte (western blot); assay type: cell-based, human; details: 100 ng/mL LPS
[3] = test system: liver cancer cell lines (HepG2, PLC/PRF/5, Huh7, Hep3B, SKHep-1, HLE); test: Antitumor effect in liver cancer cell lines, intracellular ATP amount (CellTiter-Glo); assay type: cell-based; details: cultured 72 hours, all of the cell lines; FIG. 12
[4] = test system: human liver cancer cell line (HepG2); test: Phosphorylation of mTOR pathway proteins in HepG2 (western blot); assay type: cell-based; details: for phosphorylation of Akt and S6K and 4-EBP downstream thereof: HepG2, western blot
Protocol: After culturing the human liver cancer cell line (HepG2) in LAM, ETV, ADV, and TDF, phosphorylation of Akt in the mTOR pathway and S6K and 4-EBP downstream thereof was analyzed by western blot. Then, the phosphorylation of the above-mentioned proteins was suppressed in ADV and TDF in a dose-dependent manner, but there was no change in LAM and ETV.

HepG2 = test: Subcutaneous HepG2 tumor in immunodeficient mice (NOD-SCID); assay type: in vivo, mouse; details: 90 mg/kg intraperitoneally every 3 days; for subcutaneous tumor diameter: measured 6 weeks after, vs DMSO group, p<0.05 or p<0.005, data not disclosed
Protocol: 90 mg/kg of DMSO (negative control), ETV, ADV, and TDF were intraperitoneally administered to 6-week-old immunodeficient mice (NOD-SCID), respectively (5 animals in each of the groups), HepG2 (5×10^6 cells) was subcutaneously administered 1 week after the start of administration, and the subcutaneous tumor diameter was measured 6 weeks thereafter. Each drug was intraperitoneally administered every 3 days from the start to the end of observation.

MSK-1 = test: Phosphorylation of MSK-1 in LPS-stimulated CD14+ monocyte (western blot); details: 10 μM, 2 hours, 100 ng/mL LPS, 30 minutes after LPS, FIG. 4B
GSK-3β = test: Phosphorylation of GSK-3β in LPS-stimulated CD14+ monocyte (western blot); assay type: cell-based, human; details: 2 hours treatment, 100 ng/mL LPS, 2 hours after LPS, FIG. 4E
p70S6K = test: Phosphorylation of p70S6K in LPS-stimulated CD14+ monocyte (western blot); details: 100 ng/mL LPS, cell collected 2 hours after LPS, FIG. 4C
[5] = test system: HT1080 cell stably expressing Akt 2-PH-EGFP; test: Transition of Akt to the cell membrane, fluorescent immunochemical staining / confocal microscope; assay type: cell-based; details: treated 2 hours, FIG. 7B
Protocol: AKT2-PH-EGFP tagged with HA was inserted into a pCSII-EF1α-MCS-IRES2-Blasticidin lentivirus vector. The lentivirus was infected with a HT1080 cell, and the cell was cultured in a DMEM solution containing […] of blasticidin. For observation of the intracellular migration of PH-EGFP, phosphorylated Akt, and Akt-PH-EGFP, after culturing HT1080 cell expressing each of them on a cover glass with DMSO, LAM, ADV, ETV, and TDF for 2 hours, the cell was fixed with 3.7% formalin, and thereafter nuclear staining of phosphorylated AKt (S473) and DAPI were performed to observe under a microscope.

IFN-λ3 = details: hepatitis B patients taking the drug; cited from earlier work
[6] = test system: mouse liver cancer cell lines (MHCF1 and MHCF5) and a mouse colon cancer cell line (CMT-93); test: Phosphorylation of Akt and GSK-3β in mouse cancer cell lines (western blot); assay type: cell-based; details: MHCF1, MHCF5 and CMT-93, western blotting; data not disclosed
PTEN = PTEN and pPTEN expression in CD14+ monocyte (western blot of cytosol and nuclear fractions); assay type: cell-based, human; details: pretreated 2 hours, FIG. 9
Excerpt: The results obtained by further fractionating the cell into a cytosol fraction and a nuclear fraction, and performing western blot analysis on each of the obtained fractions are shown. Poly-ADP-ribose polymerase (PARP) is the internal control of a nuclear protein, and β-actin is the internal control of the cytosol fraction. The number n is at least 3.
For the separation of the cytoplasm and the cell membrane, a MEM-PERTMPlus cell membrane protein extraction kit was used, and the protocol indicated by the product was followed. Briefly speaking, the collected cell was washed and then reacted with a buffer (to perforate the cell membrane) at 4° C. for 10 minutes. After centrifuging at 16,000 g for 15 minutes, the supernatant was collected in a new tube (cytoplasmic component). The precipitate (cell membrane) in the tube in the previous step was washed once with the above-mentioned buffer, and then reacted with a cell membrane melting buffer at 4° C. for 30 minutes while occasionally applying vibration. Thereafter, after centrifuging at 16,000 g for 15 minutes, the supernatant was collected in a new tube (cell membrane component). The cytoplasmic and nuclear components were separated using a cytoplasm/nuclear extraction kit. […]

intestinal cell = details: in vitro system; cited from earlier work
LPS-stimulated PBMC = details: PBMC treated ex vivo with nucleic acid analog, IFN-α and LPS; FIG. 2
Protocol: In the case of interferon (IFN)-α alone, 10, 100, and 1000 U/mL were used.
Many types of cytokines in the culture supernatant were measured using a Bio-Plex Human Cytokine Panel (which enables measurement at one time).
Ex vivo treatment of the PBMC was performed with a nucleic acid analog, IFN-α, and LPS, and the levels of IL-10 and IL-12p70 in the supernatant were measured.

[7] = test system: phosphatidylinositol-3 kinase and phosphoinositide-dependent kinase 1; test: Phosphorylation of proteins upstream of Akt in LPS-stimulated CD14+ monocyte (western blot); details: pretreated 2 hours, 100 ng/mL LPS, 2 hours after LPS, FIG. 7A
Protocol: An Akt inhibitor 2 (Akt-1/2) and bovine serum albumin (BSA) were respectively used as a positive control and a negative control.
The phosphorylation of several proteins upstream of Akt, such as phosphatidylinositol-3 kinase and phosphoinositide-dependent kinase 1, was analyzed.

[8] = test system: CD14+ monocyte transfected with rictor siRNA; test: IL-10 production in CD14+ monocyte after silencing rictor (mTORC2) by siRNA; assay type: cell-based, human; details: pretreated 2 hours, 100 ng/mL LPS, ELISA 24 hours after LPS, FIG. 10
Protocol: The results of confirming the expression levels of rictor, raptor, and β-actin 48 hours after transfection are shown. […] Chemically synthesized nucleotide siRNA including control siRNA was obtained from Santa Cruz (Dallas, Tex., USA). A cell was transfected with siRNA using a Nucleofector kit (Lonza, Cologne, Germany).

Akt1 = Akt1 (Homo sapiens, UniProt P31749); test: Surface plasmon resonance analysis of binding to Akt; details: Akt1 fixed on CM5 sensor chip, 25° C.; FIG. 7C
Akt1, sequence (P31749 whole entry): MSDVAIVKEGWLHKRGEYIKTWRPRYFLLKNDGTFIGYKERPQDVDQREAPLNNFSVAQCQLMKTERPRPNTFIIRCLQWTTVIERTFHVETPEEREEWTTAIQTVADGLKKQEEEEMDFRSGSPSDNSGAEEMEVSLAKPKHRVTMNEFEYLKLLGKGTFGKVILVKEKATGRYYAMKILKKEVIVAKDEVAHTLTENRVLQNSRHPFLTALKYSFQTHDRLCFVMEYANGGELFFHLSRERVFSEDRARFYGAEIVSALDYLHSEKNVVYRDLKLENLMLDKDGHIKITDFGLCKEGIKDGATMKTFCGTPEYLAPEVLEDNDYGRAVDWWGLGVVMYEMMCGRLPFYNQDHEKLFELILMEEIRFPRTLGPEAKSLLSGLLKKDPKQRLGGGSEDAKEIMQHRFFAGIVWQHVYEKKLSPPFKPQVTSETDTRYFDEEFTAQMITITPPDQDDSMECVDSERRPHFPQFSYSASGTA
Protocol: The binding affinity of the peptide for the compound was analyzed using a surface plasmon resonance biosensor (Biacore X 100, GE Healthcare). Akt1 or BSA was fixed on the surface of a CM5 sensor chip using an amine coupling kit (GE Healthcare). Compounds at different concentrations, which were diluted with phosphate buffered saline containing 5% DMSO (10 mM phosphate buffer, 2.7 mM KCl, 137 mM NaCl, 0.05% surfactant P20, pH 7.4), were injected into the sensor chip at a flow rate of 20 μL/min at 25° C. for 120 seconds, and subsequently a buffer solution not containing the compounds was applied for 180 seconds. Kinetic parameters were determined by subtracting the bulk effect of DMSO using a reference flow cell and analyzing the data using Biacore X100 evaluation software (GE Healthcare).

ERK = details: CD14+ monocyte, 10 μM, 2 hours, 100 ng/mL LPS, 30 minutes after LPS; FIG. 4B
Akt [9] = test: Phosphorylation of Akt in LPS-stimulated PBMC (western blot); assay type: cell-based, human; details: various concentrations, cell recovered 2 hours after LPS, FIG. 7E
[10] = PBMC from HV, pretreated 2 hours with nucleic acid analog, then LPS, BioPlex cytokine assay, FIG. 1A

In the case of `NC(=O)c1ncn([C@@H]2O[C@H](CO)[C@@H](O)[C@H]2O)c1N` [AICAR, 5-Aminoimidazole-4-carboxamide-1-β-D-ribofuranoside], the “IL-10 production (ELISA)” value [1] is reported as “inhibited”, the “IL-12p70 production (ELISA)” value [1] is reported as “induced” and the “phosphorylation of Akt” value (Akt [2]; CD14+ monocyte pretreated 2 hours at various concentrations, 2 hours after LPS, FIG. 11B) is reported as “enhanced phosphorylation of Akt in a dose-dependent manner”.
In the case of `C=C1[C@H](CO)[C@@H](O)C[C@@H]1n1cnc2c(=O)[nH]c(N)nc21` [ETV, entecavir], the “number of a survived cell (intracellular ATP amount)” value [3] is reported as “not recognized”, the “LPS-induced cytokine production (IL-10, IL-12p70, and TNF-α) compared with DMSO” value [1, 10] is reported as “only the same effect as that of DMSO” and the “phosphorylation of Akt and S6K and 4-EBP downstream thereof” value [4] is reported as “no change”. For the same molecule, the subcutaneous tumor diameter (HepG2) was “not different”.
In the case of `Oc1ccc(-c2nc(-c3ccncc3)c(-c3ccc(F)cc3)[nH]2)cc1` [SB202198], the “phosphorylation of MSK-1” value (MSK-1) is reported as “inhibited”.
With `CC(C)OC(=O)OCOP(=O)(CO[C@H](C)Cn1cnc2c(N)ncnc21)OCOC(=O)OC(C)C` [TDF, tenofovir disoproxil fumarate] the “number of a survived cell (intracellular ATP amount)” value [3] was “significantly reduced”, the “phosphorylation of GSK-3β” value (GSK-3β) was “inhibited” and the “phosphorylation of p70S6K” value (p70S6K) was “inhibited”. For the same molecule, the “transposition of Akt-PH to the cell membrane” value ([5]; HT1080 cell, confocal microscope) was “significantly inhibited”, the “phosphorylation of Akt (Ser 473) in HT-1080 cell” value ([5]; HT-1080 cell, anti-phospho-Akt staining) was “inhibited” and the “serum IFN-λ3 value” (IFN-λ3) was “high value”. The “phosphorylation of mTOR-related protein (Akt and GSK-3β (S9))” value [6] was “not recognized”, the “PTEN or pPTEN expression level” value (PTEN) was “did not affect” and the IFN-λ3 induction (intestinal cell) was “induces”. The “dose dependence of the regulation of IL-12p70, IL-10 and TNF-α” value ([1]; LPS-stimulated PBMC, 1:3 dilution, FIG. 1C) was “dose dependent”, the “LPS-induced IL-10 production” value [1, 10] was “inhibited” and the “LPS-induced IL-12p70 production” value [1, 10] was “significantly induced”. For the same molecule, the “LPS-induced TNF-α production” value [1, 10] was “significantly induced”, the “LPS-mediated IL-12p70 production in combination with IFN-α” value (LPS-stimulated PBMC) was “synergistically enhanced” and the “phosphorylation of Akt and S6K and 4-EBP downstream thereof” value [4] was “suppressed”. The “phosphorylation of mTOR-related protein (Akt and GSK-3β (S9))” value ([4]; HepG2 cell, western blotting, data not disclosed) was “suppressed”, the “phosphorylation of proteins upstream of Akt (phosphatidylinositol-3 kinase and phosphoinositide-dependent kinase 1)” value [7] was “did not inhibit” and the “tumor growth in one example of the group” value (HepG2) was “did not grow at all”. For the same molecule, the subcutaneous tumor diameter (HepG2) was “suppressed”, the “restoration of the decrease in IL-10 levels by silencing rictor” value [8] was “not restored” and the “phosphorylation of Akt, dose dependence” value (Akt [2]; CD14+ monocyte, 1:3 dilution, FIG. 4D) was “inhibited the phosphorylation of Akt in a dose-dependent manner”. For the same molecule, the “phosphorylation of Akt” value (Akt [2]; CD14+ monocyte, cell collected 2 hours after LPS, FIG. 4C) was “inhibited”.
For `C[C@H](Cn1cnc2c(N)ncnc21)OCP(=O)(O)OP(=O)(O)O` [TFV, tenofovir monophosphate], the “binding to the Akt protein (surface plasmon resonance biosensor)” value (Akt1) was “bound to the Akt protein in a dose-dependent manner”.
For `N#CC(=C(/N)Sc1ccccc1N)/C(C#N)=C(\N)Sc1ccccc1N` [U0126], the “phosphorylation of ERK” value (ERK) was “inhibited”.
In the case of `CCCCCCCCCCCCCCCCCCOP(=O)([O-])OC1CC[N+](C)(C)CC1` [perifosine], the “phosphorylation of Akt” value (Akt [9]) is reported as “inhibited phosphorylation of Akt in a dose-dependent manner”, the “IL-10 production (ELISA)” value [1] is reported as “decreased” and the “IL-12p70 production (ELISA)” value [1] is reported as “increased”.
